From patent publication US8883782B2, “Spiro-tetracyclic ring compounds as beta-secretase modulators and methods of use” (Amgen Inc., priority 2010, dated 2014)
Like-named read-outs stand apart in the source and are kept apart here.

How the values were obtained:
[1] = molecular target: Beta Secretase enzyme (BACE) (Homo sapiens, UniProt P56817); experiment: In vitro enzymatic BACE FRET (fluorescence resonance energy transfer) assay; assay type: biochemical
In short: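 Fluorescence read after Tris quench (pH raised to neutrality) of a one-hour BACE reaction. Buffer: acetate 0.05 M, pH 4.2, with 100 uM genapol and 10% DMSO final; started by adding 50 nM FRET peptide substrate spanning the cleavage site.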

[2] = test system: Aβ40 in conditioned medium of cells stably expressing Amyloid Precursor Protein (APP); experiment: In vitro BACE cell-based assay (Aβ40 in conditioned medium, sandwich ELISA)
In short: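 The sandwich ELISA pairs pAb40 capture (3 h, 4 °C) with 6E10 detection (2 h, 4 °C) and a streptavidin-europium TRF read-out. Supernatants come from APP-expressing cells grown in 10% FBS DMEM.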

[3] = average IC50, enzyme assay, read-out: BACE 1 FRET assay
[4] = Homo sapiens, HEK293, average IC50, HEK cells, read-out: HEK cell assay
[5] = Homo sapiens, HEK293, average IC50, read-out: HEK cell assay

Beta Secretase enzyme (BACE), sequence (P56817 46-501, species assumed): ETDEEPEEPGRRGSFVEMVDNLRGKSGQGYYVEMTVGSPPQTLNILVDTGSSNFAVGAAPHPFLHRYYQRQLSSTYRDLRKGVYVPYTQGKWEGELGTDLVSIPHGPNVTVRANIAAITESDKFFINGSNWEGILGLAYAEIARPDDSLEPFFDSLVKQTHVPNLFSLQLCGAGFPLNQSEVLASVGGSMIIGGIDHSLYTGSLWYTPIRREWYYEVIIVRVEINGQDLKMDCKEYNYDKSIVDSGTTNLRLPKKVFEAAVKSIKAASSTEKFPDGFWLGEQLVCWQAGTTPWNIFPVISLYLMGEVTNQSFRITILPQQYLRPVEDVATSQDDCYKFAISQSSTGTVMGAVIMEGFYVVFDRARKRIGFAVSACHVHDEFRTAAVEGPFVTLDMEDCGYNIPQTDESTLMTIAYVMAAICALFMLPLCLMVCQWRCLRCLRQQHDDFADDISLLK

Row | IC50 [1, 3] [µM] | IC50 [2, 4] [nM] | IC50 [2, 5] [nM] | SMILES | IC50 ([1]; BACE 1 FRET assay (uM)) [µM] | IC50 ([2]; average IC50, HEK cells) [nM]
1 | 0.0516 | 580 |  | NC1=N[C@]2(CO1)c1ccncc1Oc1ccc(-c3c(F)ccnc3F)cc12 [Example 677, (5S)-7-(2,4-difluoro-3-pyridinyl)spiro[chromeno[2,3-c]pyridine-5,4′-[1,3]oxazol]-2′-amine] |  | 
2 |  |  |  | CC1(C)C=C(c2cc3c(cn2)Oc2ccc(-c4cncnc4)cc2[C@@]32COC(N)=N2)CCO1 [Example 678, (5S)-3-(6,6-dimethyl-3,6-dihydro-2H-pyran-4-yl)-7-(5-pyrimidinyl)spiro[chromeno[2,3-c]pyridine-5,4′-[1,3]oxazol]-2′-amine] | 0.0009 | 8
3 | 0.0016 | 14 |  | CC1(C)CC(c2cc3c(cn2)Oc2ccc(-c4cncnc4)cc2[C@@]32COC(N)=N2)=CCO1 [Example 679, (5S)-3-(2,2-dimethyl-3,6-dihydro-2H-pyran-4-yl)-7-(5-pyrimidinyl)spiro[chromeno[2,3-c]pyridine-5,4′-[1,3]oxazol]-2′-amine] |  | 
4 | 0.0153 | 806 |  | COc1ccnc(F)c1-c1ccc2c(c1)[C@@]1(COC(N)=N1)c1cc(Cl)ncc1O2 [Example 680, (5S)-3-chloro-7-(2-fluoro-4-methoxy-3-pyridinyl)spiro[chromeno[2,3-c]pyridine-5,4′-[1,3]oxazol]-2′-amine] |  | 
5 | 0.0005 | 12 |  | COc1ccnc(F)c1-c1ccc2c(c1)[C@@]1(COC(N)=N1)c1cc(-c3ccnc(F)c3)ncc1O2 [Example 681, (5S)-7-(2-fluoro-4-methoxy-3-pyridinyl)-3-(2-fluoro-4-pyridinyl)spiro[chromeno[2,3-c]pyridine-5,4′-[1,3]oxazol]-2′-amine] |  | 
6 | 0.0009 | 74 |  | NC1=NC2(CS1)c1cc(-c3cccnc3F)ccc1Oc1c2cc(-c2cccnc2F)nc1F (stereo not drawn) [Example 682, 1-fluoro-3,7-bis(2-fluoro-3-pyridinyl)spiro[chromeno[2,3-c]pyridine-5,4′-[1,3]thiazol]-2′-amine] |  | 
7 | 0.0012 | 19 |  | CC1(C#Cc2cc3c(cn2)Oc2ccc(-c4cccnc4F)cc2C32CSC(N)=N2)COC1 (stereo not drawn) [Example 683, 7-(2-fluoro-3-pyridinyl)-3-((3-methyl-3-oxetanyl)ethynyl)spiro[chromeno[2,3-c]pyridine-5,4′-[1,3]thiazol]-2′-amine] |  | 
8 | 0.0038 | 34 |  | NC1=N[C@@]2(CO1)c1cc(-c3cccnc3)ccc1Oc1c(F)cc(-n3cccn3)cc12 [Example 684, (4S)-4′-fluoro-2′-(1H-pyrazol-1-yl)-7′-(3-pyridyl)spiro[1,3-oxazole-4,9′-xanthen]-2-amine] |  | 
9 | 0.0004 | 11 |  | CC(C)(C)C#Cc1cc2c(nc1F)Oc1ccc(-c3cccnc3F)cc1[C@@]21COC(N)=N1 [Example 685, (5S)-3-(3,3-dimethyl-1-butyn-1-yl)-2-fluoro-7-(2-fluoro-3-pyridinyl)spiro[chromeno[2,3-b]pyridine-5,4′-[1,3]oxazol]-2′-amine] |  | 
10 | 0.0008 | 12 |  | NC1=N[C@@]2(CO1)c1cc(-c3cccnc3F)ccc1Oc1c(F)cc(-c3ccnnc3)cc12 [Example 686, (4S)-4′-fluoro-7′-(2-fluoro-3-pyridinyl)-2′-(4-pyridazinyl)spiro[1,3-oxazole-4,9′-xanthen]-2-amine] |  | 
11 | 0.0804 | 853 |  | COc1cncc(-c2ccc3c(c2)[C@@]2(COC(N)=N2)c2cc(-c4ncccn4)ncc2O3)c1 [Example 687, (5S)-7-(5-methoxy-3-pyridinyl)-3-(2-pyrimidinyl)spiro[chromeno[2,3-c]pyridine-5,4′-[1,3]oxazol]-2′-amine] |  | 
12 | 0.346 | 2150 |  | CC1(C#Cc2cnc3c(c2)[C@]2(COC(N)=N2)c2cc(O)ccc2O3)COC1 [Example 690, (5S)-2′-amino-3-((3-methyl-3-oxetanyl)ethynyl)spiro[chromeno[2,3-b]pyridine-5,4′-[1,3]oxazol]-7-ol] |  | 
13 | 0.002 | 63 |  | NC1=N[C@@]2(CO1)c1cc(-c3cccnc3F)ccc1Oc1c(F)cc(-n3cccn3)cc12 [Example 691, (4S)-4′-fluoro-7′-(2-fluoro-3-pyridinyl)-2′-(1H-pyrazol-1-yl)spiro[1,3-oxazole-4,9′-xanthen]-2-amine] |  | 
14 | 0.0037 | 74 |  | NC1=N[C@@]2(CO1)c1cc(-c3cncnc3)ccc1Oc1c(F)cc(-n3cccn3)cc12 [Example 692, (4S)-4′-fluoro-2′-(1H-pyrazol-1-yl)-7′-(5-pyrimidinyl)spiro[1,3-oxazole-4,9′-xanthen]-2-amine] |  | 
15 | 0.0105 | 237 |  | CN(C)c1cc2c(cn1)Oc1ccc(-c3cccnc3F)cc1C21CSC(N)=N1 (stereo not drawn) [Example 693, 7-(2-fluoro-3-pyridinyl)-N~3~,N~3~-dimethylspiro[chromeno[2,3-c]pyridine-5,4′-[1,3]thiazole]-2′,3-diamine] |  | 
16 | 0.0003 | 6 |  | NC1=N[C@@]2(CO1)c1cc(-c3cccnc3F)ccc1Oc1c2cc(N2CCC(F)(F)CC2)nc1F [Example 698, (5S)-3-(4,4-difluoro-1-piperidinyl)-1-fluoro-7-(2-fluoro-3-pyridinyl)spiro[chromeno[2,3-c]pyridine-5,4′-[1,3]oxazol]-2′-amine] |  | 
17 | 13.3 | ≥ 10000 |  | COc1ccc2c(c1)[C@@]1(COC(N)=N1)c1cc(C3(O)COC3)cc(F)c1O2 [Example 708, (S)-3-(2-amino-5′-fluoro-2′-methoxy-5H-spiro[oxazole-4,9′-xanthene]-7′-yl)oxetan-3-ol] |  | 
18 | 4.56 | ≥ 10000 |  | COc1ccc2c(c1)[C@@]1(COC(N)=N1)c1cc(C3(F)COC3)cc(F)c1O2 [Example 709, (S)-4′-fluoro-2′-(3-fluorooxetan-3-yl)-7′-methoxy-5H-spiro[oxazole-4,9′-xanthen]-2-amine] |  | 
19 | 6.89 |  | ≥ 10000 | COc1nc(Cl)cc2c1Oc1ccc(Br)cc1[C@@]21COC(N)=N1 [Example 710, (S)-7-bromo-3-chloro-1-methoxy-5′H-spiro[chromeno[2,3-c]pyridine-5,4′-oxazol]-2′-amine] |  | 
20 | 0.0697 |  | 1090 | NC1=N[C@@]2(CO1)c1cc(-c3cccnc3O)ccc1Oc1cnc(-c3ccnc(F)c3)cc12 [Example 712, (S)-3-(2′-amino-3-(2-fluoropyridin-4-yl)-5′H-spiro[chromeno[2,3-c]pyridine-5,4′-oxazole]-7-yl)pyridin-2-ol] |  | 
21 | 0.0036 | 55 |  | NC1=N[C@@]2(CO1)c1cc(-c3cccnc3F)ccc1Oc1nc(F)c(N3CCOCC3)cc12 [Example 714, (S)-2-fluoro-7-(2-fluoropyridin-3-yl)-3-morpholino-5′H-spiro[chromeno[2,3-b]pyridine-5,4′-oxazol]-2′-amine] |  | 
22 | 0.0038 | 212 |  | CC(C)(F)C#Cc1cnc2c(c1)[C@]1(COC(N)=N1)c1cc(-c3cncnc3)c(F)cc1O2 [Example 717, (S)-8-fluoro-3-(3-fluoro-3-methylbut-1-ynyl)-7-(pyrimidin-5-yl)-5′H-spiro[chromeno[2,3-b]pyridine-5,4′-oxazol]-2′-amine] |  | 
23 | 0.067 |  | 1370 | COCC1SC(N)=NC12c1cc(-c3cccnc3F)ccc1Oc1c(F)cc(OC)cc12 [Example 720, (4R)-4′-fluoro-7′-(2-fluoro-3-pyridinyl)-2′-methoxy-5-(methoxymethyl)spiro[1,3-thiazole-4,9′-xanthen]-2-amine, (4S)-4′-fluoro-7′-(2-fluoro-3-pyridinyl)-2′-methoxy-5-(methoxymethyl)spiro[1,3-thiazole-4,9′-xanthen]-2-amine] |  | 
24 | 0.335 | 5930 |  | COCC1SC(N)=N[C@]12c1cc(-c3cccnc3F)ccc1Oc1cnc(-c3ccnc(F)c3)cc12 (stereo partly drawn) [Example 722, (5S)-7-(2-fluoro-3-pyridinyl)-3-(2-fluoro-4-pyridinyl)-5′-(methoxymethyl)spiro[chromeno[2,3-c]pyridine-5,4′-[1,3]thiazol]-2′-amine] |  | 
25 | 0.0926 |  | 958 | CC#Cc1cncc(-c2ccc3c(c2)[C@@]2(COC(N)=N2)c2cc(OC)cc(F)c2O3)n1 [Example 723, (4S)-4′-fluoro-2′-methoxy-7′-(6-(1-propyn-1-yl)-2-pyrazinyl)spiro[1,3-oxazole-4,9′-xanthen]-2-amine] |  | 
26 | 0.0227 |  | 1920 | NC1=N[C@@]2(CO1)c1cc(Oc3cccc(Cl)n3)ccc1Oc1c(F)cc(C3=CCOCC3)cc12 [Example 725, (4S)-7′-((6-chloro-2-pyridinyl)oxy)-2′-(3,6-dihydro-2H-pyran-4-yl)-4′-fluorospiro[1,3-oxazole-4,9′-xanthen]-2-amine] |  | 
27 | 0.0041 |  | 128 | CC1(C#Cc2cnc3c(c2)[C@]2(CSC(N)=N2)c2cc(-c4cnccc4F)ccc2O3)COC1 [Example 727, (5S)-7-(4-fluoro-3-pyridinyl)-3-((3-methyl-3-oxetanyl)ethynyl)spiro[chromeno[2,3-b]pyridine-5,4′-[1,3]thiazol]-2′-amine] |  | 
28 | 0.0035 |  | 80 | NC1=N[C@@]2(CS1)c1cc(-c3cccnc3F)ccc1Oc1ncc(-c3ncccn3)cc12 [Example 728, (5S)-7-(2-fluoro-3-pyridinyl)-3-(2-pyrimidinyl)spiro[chromeno[2,3-b]pyridine-5,4′-[1,3]thiazol]-2′-amine] |  | 

Row | SMILES | IC50 [1, 3] [µM] | IC50 [2, 4] [nM] | IC50 [2, 5] [nM] | IC50 ([1]; BACE 1 FRET assay (uM)) [µM] | IC50 ([2]; average IC50, HEK cells) [nM]
29 | NC1=N[C@@]2(CO1)c1cc(O)ccc1Oc1ncc(Br)cc12 [Example 689, (5S)-2′-amino-3-bromospiro[chromeno[2,3-b]pyridine-5,4′-[1,3]oxazol]-7-ol] | 4.07 | 10000 |  |  | 
30 | CC(C)(C)OCc1cnc2c(c1)[C@]1(COC(N)=N1)c1cc(-c3cccnc3F)c(F)cc1O2 [Example 716, (S)-3-(tert-butoxymethyl)-8-fluoro-7-(2-fluoropyridin-3-yl)-5′H-spiro[chromeno[2,3-b]pyridine-5,4′-oxazol]-2′-amine] | 0.0065 | 132 |  |  | 
